In US20170252383A1, “AGENT FOR PROMOTING GROWTH OF NONPATHOGENIC ORAL INDIGENOUS BACTERIA OR AGENT FOR IMPROVING ORAL BACTERIAL FLORA, AND COMPOSITION FOR ORAL USE” (HOKUTO CORPORATION, priority 2014, published 2017):

Legend:
Assay in all cases: Growth-promoting effects on normal bacteria in oral cavity (Experimental Example 2)
Type in all cases: cell-based
Conditions in all cases: powder 0.01% in distilled water (triclosan concentration not printed), aerobic 37° C., 12 hours, turbidity relative to control without sample
[1] = tested on: Streptococcus gordonii ATCC 10558
Protocol: (§1) Dry-ground mushroom powder suspensions obtained by dispersing the dry-ground powders of various mushrooms prepared as described above to a concentration of 0.01% in distilled water, and 4% aqueous solutions of the various mushroom extracts obtained as described above, were each added as samples in 100 μL portions to 96-well plates.
(§2) Next, 100 μL of suspensions of the bacteria shown in Tables 1 and 2 were added to the dry-ground mushroom powder suspensions and mushroom extracts serving as these samples, and the bacteria were cultured aerobically at 37° C. for 12 hours. The bacterial suspensions used were prepared by pre-culturing the bacteria in a tryptic soy medium (TS medium; Becton and Dickinson), and inoculating the pre-cultured bacteria to a 2% concentration in a 2-fold concentration TS medium.
(§3) Bacterial proliferation was measured, calculated and evaluated in the same way as in Experimental Example 1.
(§4) The indigenous oral bacteria used in evaluation were of the following three species purchased from the ATCC.
Streptococcus gordonii ATCC 10558 (S. gordonii)
(§5) Prior to turbidity measurement, the culture fluids were stirred by shaking the plates.

[2] = tested on: Streptococcus mitis ATCC 47456
Protocol: as §1, §2, §3, §4
Streptococcus mitis ATCC 47456 (abbreviated below as S. mitis)
as §5

[3] = tested on: Streptococcus oralis ATCC 9811
Protocol: as §1, §2, §3, §4
Streptococcus oralis ATCC 9811 (abbreviated below as S. oralis)
as §5

Oc1cc(Cl)ccc1Oc1ccc(Cl)cc1Cl [Triclosan, triclosan]
suppressed growth: Degree of bacterial growth due to dry-ground powders, S. gordonii ([1]; listed as triclosan) | Degree of bacterial growth due to dry-ground powders, S. mitis ([2]; listed as triclosan) | Degree of bacterial growth due to dry-ground powders, S. oralis ([3]; listed as triclosan)
0: Degree of bacterial growth due to dry-ground powders, S. gordonii [1] | Degree of bacterial growth due to dry-ground powders, S. mitis [2] | Degree of bacterial growth due to dry-ground powders, S. oralis [3]
